For 27 compounds, IC50 and EC50 results are on record in US7915291B2, “Hepatitis C virus inhibitors” (Bristol-Myers Squibb Company, priority 2002, dated 2011).

Read-outs that look alike come from different tables or passages of the source.

Usually IC50 stands for the midpoint of a concentration-inhibition curve. In general, EC50 refers to the concentration needed to bring the measured effect to its halfway point.

For test [1], the target named is HCV NS3/4A protease complex, BMS strain (UniProt P27958, C1454S/C1711G, species not given/STRAIN_BMS). The test can be described thus: Recombinant HCV NS3/4A protease complex FRET peptide assay (BMS strain). The class given is biochemical, HCV genotype 1a. In a few lines:
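Recombinant BMS-strain NS3/4A (His-tagged NS4A with three-lysine tail, E. coli) at 2-3 nM preincubated 1 min with compound, then 2 μM ester-linked NS4A/NS4B-based FRET peptide added. Fluorescence followed in real time ~15 min at 25° C. Percent inhibition from slope of linear fluorescence change versus no-compound control.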

Test [2] deals with HCV replicon in Huh7 cells. Put plainly: HCV replicon cell-based assay. More on the design: species or system HCV strain 1B. Particulars: Hepatitis C virus, Huh-7; HCV replicon, Huh7 cells; read-out: EC50 range.
Setting [3] is: NS3/4A BMS strain; read-out: IC50 range.
Setting [4] is: read-out: IC50 range; NS3/4A BMS strain.

For the compound `C=C[C@@H]1C[C@]1(NC(=O)[C@@H]1CC(Oc2nccc3cc(OC)ccc23)CN1C(=O)[C@@H](NC(N)=O)C(C)(C)C)C(=O)NS(=O)(=O)C1CC1` (stereo partly drawn) [Compound 80], in test [1] (setting [3]), the IC50 is below 0.1 µM. For the same compound, the concentration giving a half-maximal response (EC50) in test [2] was in the range of 1 to 10 µM.

With `C=C[C@@H]1C[C@]1(NC(=O)[C@@H]1CC(Oc2nccc3cc(OC)ccc23)CN1C(=O)[C@@H](NC(=O)NC(C)(C)CC(C)(C)C)C(C)(C)C)C(=O)NS(=O)(=O)C1CC1` (stereo partly drawn) [Compound 81], in test [1] (setting [3]), the 50% inhibitory concentration (IC50) was below 0.1 µM. In test [2], the EC50 was 0.1 to 1 µM.

For the compound `C=C[C@@H]1C[C@]1(NC(=O)[C@@H]1CC(Oc2nccc3cc(OC)ccc23)CN1C(=O)[C@@H](NC(=O)NC(C)(C)Cc1ccc(F)cc1)C(C)(C)C)C(=O)NS(=O)(=O)C1CC1` (stereo partly drawn) [Compound 82], the IC50 in test [1] (setting [3]) is below 0.1 µM. The EC50 in test [2] lay within 0.1 to 1 µM.

Consider `C=C[C@@H]1C[C@]1(NC(=O)[C@@H]1CC(Oc2nccc3cc(OC)ccc23)CN1C(=O)[C@@H](NC(=O)NC(C)(C)c1ccccc1)C(C)(C)C)C(=O)NS(=O)(=O)C1CC1` (stereo partly drawn) [Compound 83], for which the IC50 in test [1] (setting [3]) was below 0.1 µM. The EC50 in test [2] fell in the range of 0.1 to 1 µM.

Take `C=C[C@@H]1C[C@]1(NC(=O)[C@@H]1CC(Oc2nccc3cc(OC)ccc23)CN1C(=O)C([C@@H](C)CC)N(C)C(=O)OC(C)(C)C)C(=O)NS(=O)(=O)C1CC1` (stereo partly drawn) [Compound 84]: in test [1] (setting [3]), the half-inhibitory concentration (IC50) was below 0.1 µM. Besides, the EC50 in test [2] lay in the range of 0.1 to 1 µM.

For the compound `C=C[C@@H]1C[C@]1(NC(=O)[C@@H]1CC(Oc2nccc3cc(OC)ccc23)CN1C(=O)[C@H](C(C)C)N(C)C(=O)OC(C)(C)C)C(=O)NS(=O)(=O)C1CC1` (stereo partly drawn) [Compound 85], the 50% inhibitory concentration (IC50) in test [1] (setting [3]) was in the range of 0.1 to 1 µM. For the same compound, the EC50 in test [2] lay within 1 to 10 µM.

Turning to `C=C[C@@H]1C[C@]1(NC(=O)[C@@H]1CC(Oc2nccc3cc(OC)ccc23)CN1C(=O)[C@H](CC(C)C)N(C)C(=O)OC(C)(C)C)C(=O)NS(=O)(=O)C1CC1` (stereo partly drawn) [Compound 86], the half-maximal inhibitory concentration (IC50) in test [1] (setting [3]) lay in the range of 1 to 10 µM. For the same compound, the concentration for a half-maximal effect (EC50) in test [2] was 10 to 100 µM.

Take `C=C[C@@H]1C[C@]1(NC(=O)[C@@H]1CC(Oc2nccc3cc(OC)ccc23)CN1C(=O)[C@H](CCCC)N(C)C(=O)OC(C)(C)C)C(=O)NS(=O)(=O)C1CC1` (stereo partly drawn) [Compound 87]: in test [1] (setting [3]), the half-maximal inhibitory concentration (IC50) fell in the range of 1 to 10 µM. In addition, in test [2], the concentration giving a half-maximal response (EC50) is 10 to 100 µM.

As for `C=C[C@@H]1C[C@]1(NC(=O)[C@@H]1CC(Oc2nccc3cc(OC)ccc23)CN1C(=O)[C@H](CCC)N(C)C(=O)OC(C)(C)C)C(=O)NS(=O)(=O)C1CC1` (stereo partly drawn) [Compound 88], the half-inhibitory concentration (IC50) in test [1] (setting [3]) lay within 1 to 10 µM. Further, the 50% effective concentration (EC50) in test [2] was in the range of 10 to 100 µM.

Turning to `C=C[C@@H]1C[C@]1(NC(=O)[C@@H]1CC(Oc2nccc3cc(OC)ccc23)CN1C(=O)[C@@H](NC(=O)OC(C)(C)C)C(C)(C)O)C(=O)NS(=O)(=O)C1CC1` (stereo partly drawn) [Compound 89], the 50% inhibitory concentration (IC50) in test [1] (setting [3]) was below 0.1 µM. In addition, the EC50 in test [2] was below 0.1 µM.

In the case of `C=C[C@@H]1C[C@]1(NC(=O)[C@@H]1CC(Oc2nccc3cc(OC)ccc23)CN1C(=O)[C@@H](NC(=O)OC(C)(C)C)[C@@H](C)O)C(=O)NS(=O)(=O)C1CC1` (stereo partly drawn) [Compound 91], the IC50 in test [1] (setting [3]) is below 0.1 µM. For the same compound, in test [2], the EC50 was 0.1 to 1 µM.

Consider `C=C[C@@H]1C[C@]1(NC(=O)[C@@H]1C[C@@H](Oc2nccc3cc(OC)ccc23)CN1C(=O)[C@@H](NC(=O)OC(C)(C)C)[C@@H](C)OC)C(=O)NS(=O)(=O)C1CC1` [Compound 92], for which, in test [1] (setting [3]), the IC50 was below 0.1 µM. In test [2], the EC50 was below 0.1 µM.

In the case of `C=C[C@@H]1C[C@]1(NC(=O)[C@@H]1C[C@@H](Oc2nccc3cc(OC)ccc23)CN1C(=O)[C@@H](NC(=O)OC(C)(C)C)[C@@H](C)OC(C)(C)C)C(=O)NS(=O)(=O)C1CC1` [Compound 93], the IC50 in test [1] (setting [3]) is 0.1 to 1 µM. For the same compound, the EC50 in test [2] fell in the range of 0.1 to 1 µM.

As to `C=C[C@@H]1C[C@]1(NC(=O)[C@@H]1C[C@@H](Oc2nccc3cc(OC)ccc23)CN1C(=O)[C@@H](NC(=O)OC(C)(C)C)[C@H](C)OC)C(=O)NS(=O)(=O)C1CC1` [Compound 94], the half-maximal inhibitory concentration (IC50) in test [1] (setting [3]) was below 0.1 µM. In addition, the EC50 in test [2] was below 0.1 µM.

For the compound `C=C[C@@H]1C[C@]1(NC(=O)[C@@H]1C[C@@H](Oc2nccc3cc(OC)ccc23)CN1C(=O)[C@@H](NC(=O)OC(C)(C)C)[C@H](C)O)C(=O)NS(=O)(=O)C1CC1` [Compound 95], the half-inhibitory concentration (IC50) in test [1] (setting [3]) is below 0.1 µM. Further, the EC50 in test [2] was in the range of 0.1 to 1 µM.

For `C=C[C@@H]1C[C@]1(NC(=O)[C@@H]1C[C@@H](Oc2nccc3cc(OC)ccc23)CN1C(=O)[C@@H](NC(=O)OC(C)(C)C)[C@H](C)OCC)C(=O)NS(=O)(=O)C1CC1` [Compound 96], the half-maximal inhibitory concentration (IC50) in test [1] (setting [4]) was below 0.1 µM. Besides, the EC50 in test [2] was below 0.1 µM.

For the compound `C=C[C@@H]1C[C@]1(NC(=O)[C@@H]1C[C@@H](Oc2nccc3cc(OC)ccc23)CN1C(=O)[C@@H](NC(=O)OC(C)(C)C)[C@H](C)OC(C)(C)C)C(=O)NS(=O)(=O)C1CC1` [Compound 97], in test [1] (setting [3]), the half-maximal inhibitory concentration (IC50) is below 0.1 µM. In addition, the EC50 in test [2] was below 0.1 µM.

Turning to `C=C[C@@H]1C[C@]1(NC(=O)[C@@H]1C[C@@H](Oc2nccc3cc(OC)ccc23)CN1C(=O)[C@@H](N)[C@H](C)OC)C(=O)NS(=O)(=O)C1CC1` [Compound 100], the IC50 in test [1] (setting [4]) fell in the range of 0.1 to 1 µM. Besides, the concentration for a half-maximal effect (EC50) in test [2] lay within 1 to 10 µM.

For the compound `C=C[C@@H]1C[C@]1(NC(=O)[C@@H]1C[C@@H](Oc2nccc3cc(OC)ccc23)CN1C(=O)[C@@H](NC(=O)NC(C)(C)C)[C@H](C)OC)C(=O)NS(=O)(=O)C1CC1` [Compound 101], in test [1] (setting [4]), the half-inhibitory concentration (IC50) was below 0.1 µM. Also, the EC50 in test [2] is below 0.1 µM.

For the compound `C=C[C@@H]1C[C@]1(NC(=O)[C@@H]1C[C@@H](Oc2nccc3cc(OC)ccc23)CN1C(=O)[C@@H](NC(=O)NC(C)(C)CC)[C@H](C)OC)C(=O)NS(=O)(=O)C1CC1` [Compound 102], the IC50 in test [1] (setting [3]) was below 0.1 µM. For the same compound, the EC50 in test [2] was below 0.1 µM.

As to `C=C[C@@H]1C[C@]1(NC(=O)[C@@H]1C[C@@H](Oc2nccc3cc(OC)ccc23)CN1C(=O)[C@@H](NC(=O)NC1CCCC1)[C@H](C)OC)C(=O)NS(=O)(=O)C1CC1` [Compound 103], the IC50 in test [1] (setting [3]) was below 0.1 µM. In addition, the EC50 in test [2] is below 0.1 µM.

For the compound `C=C[C@@H]1C[C@]1(NC(=O)[C@@H]1C[C@@H](Oc2nccc3cc(OC)ccc23)CN1C(=O)[C@@H](NC(=O)OC1CCCC1)[C@H](C)OC)C(=O)NS(=O)(=O)C1CC1` [Compound 104], the half-inhibitory concentration (IC50) in test [1] (setting [4]) is below 0.1 µM. In addition, the EC50 in test [2] is below 0.1 µM.

Regarding `C=C[C@@H]1C[C@]1(NC(=O)[C@@H]1C[C@@H](Oc2nccc3cc(OC)ccc23)CN1C(=O)[C@@H](NC(=O)OC(C)(C)CC)[C@H](C)OC)C(=O)NS(=O)(=O)C1CC1` [Compound 105], in test [1] (setting [4]), the concentration for half-maximal inhibition (IC50) was below 0.1 µM. For the same compound, the 50% effective concentration (EC50) in test [2] is below 0.1 µM.

Regarding `C=C[C@@H]1C[C@]1(NC(=O)[C@@H]1C[C@@H](Oc2nccc3cc(OC)ccc23)CN1C(=O)[C@@H](NC(=O)OC(C)(C)C(F)(F)F)[C@H](C)OC)C(=O)NS(=O)(=O)C1CC1` [Compound 106], the IC50 in test [1] (setting [3]) was below 0.1 µM. Besides, in test [2], the EC50 was below 0.1 µM.

For `C=C[C@@H]1C[C@]1(NC(=O)[C@@H]1CC(Oc2nc(-c3ccccc3)cc3ccccc23)CN1C(=O)[C@@H](NC(=O)OC(C)(C)C)[C@H](C)O)C(=O)NS(=O)(=O)C1CC1` (stereo partly drawn) [Compound 107], the 50% inhibitory concentration (IC50) in test [1] (setting [4]) was below 0.1 µM. Besides, the EC50 in test [2] was 0.1 to 1 µM.

Turning to `C=C[C@@H]1C[C@]1(NC(=O)[C@@H]1CC(Oc2nc(-c3ccccc3)cc3ccccc23)CN1C(=O)[C@@H](NC(=O)OC(C)(C)C)[C@H](C)OC)C(=O)NS(=O)(=O)C1CC1` (stereo partly drawn) [Compound 108], the IC50 in test [1] (setting [3]) is below 0.1 µM. Besides, in test [2], the EC50 was below 0.1 µM.

On to `C=C[C@@H]1C[C@]1(NC(=O)[C@@H]1CC(Oc2nc(-c3ccccc3)cc3ccccc23)CN1C(=O)[C@@H](NC(=O)OC(C)(C)C)[C@H](C)OCC)C(=O)NS(=O)(=O)C1CC1` (stereo partly drawn) [Compound 109], for which the IC50 in test [1] (setting [3]) was below 0.1 µM. For the same compound, the EC50 in test [2] is below 0.1 µM.
